Source: US10221190B2, “Biguanide compounds and use thereof” (IMMUNOMET THERAPEUTICS INC., priority 2013, dated 2019)
pIC50: −log10 of the molar value.

The compounds below were run on HCT116 cell (assay: Inhibitory activity against cancer cells (MTT cell viability), HCT116). Details: Homo sapiens, HCT 116, 48 hr incubation.
Type: cell-based, human
Method: The inhibitory activities of biguanide derivatives against cancer cells were evaluated in the cell line SK-MEL-28 derived from human Melanoma cell, Miapaka-2 cell line derived from human pancreatic cancer cell and HCT116 cell line derived from human colorectal cancer cell by measuring the concentration that inhibits 50% of the growth of the cell lines (the half maximal inhibitory concentration, IC50).
Firstly, SK-MEL-28 cells were grown to be density of 5,000 cells/well in RPMI-1640 media supplemented with 10% (v/v) bovine calf serum, on 96-well plates for 16 hr. To measure the IC50 of each compound, the cells were incubated for 48 hr with the 100 mM PBS stock compounds at an amount of 10 mM, 1 mM, 200 uM, 40 uM, 8 uM, 1.6 uM, 0.32 uM or 0.064 uM; 50 mM PBS and EtOH stock compounds at an amount of 1 mM, 200 uM, 40 uM, 8 uM, 1.6 uM, 0.32 uM and 0.064 uM; and 50 mM DMSO stock compounds at an amount of 100 uM, 25 uM, 6.25 uM, 1.56 uM, 0.39 uM, 0.10 uM and 0.02 uM, respectively. To test the viable cells after incubation with each compound, the cell cultures were incubated additionally for 2 hr in the presence of MTT. The produced formazan crystals were dissolved with dimethyl sulfoxide and then measured by detecting the absorbance at 560 nm.
After the 48 hr incubation, the viable cells were counted on the well plates treated with the compounds of the Examples relative to the count of the viable cells on the non-treated plates, and then was represented as the cell viability (%). By using the cell viability (%) result, the cell viability curve was plotted, and IC50 was calculated from the curve to evaluate the inhibitory activity against cancer cells.
The inhibitory activities of biguanide derivatives against cancer cells of Miapaca-2 cell and HCT116 cell were evaluated according to the substantially same method as described in SK-MEL-28 cell, except that DMEM media supplemented with 10% (v/v) bovine calf serum was used instead of RPMI-1640 media supplemented with 10% (v/v) bovine calf serum for SK-MEL-28 cell.

SMILES | pIC50
COc1ccc(NC(=N)NC(=N)N2CCCC2)cc1 [Example 2, N1-pyrrolidine-N5-(4-methoxy)phenyl biguanide] | < 4.00
COc1ccc(NC(=N)NC(=N)N2CCCC2)cc1Cl [Example 3, N1-pyrrolidine-N5-(3-chloro-4-methoxy)phenyl biguanide] | < 4.00
CN(C(=N)NC(=N)N1CCCC1)c1c(F)cccc1F [Example 4, N1-pyrrolidine-N5-(2,6-difluoro-N5-methyl)phenyl biguanide] | < 4.00
CN(C)c1ccc(NC(=N)NC(=N)N2CCCC2)cc1 [Example 5, N1-pyrrolidine-N5-(4-dimethylamino)phenyl biguanide] | < 4.00
CC(C)(NC(=N)NC(=N)N1CCCC1)c1ccccc1 [Example 13, N1-pyrrolidine-N5-(2-phenylpropane-2-yl) biguanide] | < 4.00
N=C(NC(=N)N1CCCC1)NC1CCCc2ccccc21 (stereo not shown) [Example 15, N1-pyrrolidine-N5-(1,2,3,4-tetrahydronaphthalen-1-yl) biguanide] | 3.15
N=C(NC(=N)N1CC[C@@H](O)C1)Nc1ccc(OC(F)(F)F)cc1 [Example 19, N1-(R)-3-hydroxy pyrrolidine-N5-(4-trifluoromethoxy)phenyl biguanide] | < 4.00
N=C(NC(=N)N1CCC(O)CC1)Nc1ccc(Oc2ccccc2)cc1 [Example 21, N1-4-hydroxy piperidine-N5-(4-phenoxy)phenyl biguanide] | < 4.00
N=C(NCc1ccc(C(=O)N2CCCCC2)cc1)NC(=N)N1CCCC1 [Example 25, N—(N-(4-(piperidine-1-carbonyl)benzyl)carbamimidoyl)pyrrolidine-1-carboximidamide] | < 4.00
N=C(NC(=N)N1CCCC1)Nc1ccc(CCC(=O)N2CCCCC2)cc1 [Example 26, N—(N-(4-(3-oxo-3-(piperidin-1-yl)propyl)phenyl)carbamimidoyl)pyrrolidine-1-carboximidamide] | < 4.00
CCNC(=O)c1ccc(CNC(=N)NC(=N)N2CCCC2)cc1 [Example 27, N-ethyl-4-((3-(imino(pyrrolidin-1-yl)methyl)guanidino)methyl)benzamide] | < 4.00
N=C(NC(=N)N1CC[C@H](O)C1)Nc1ccc(SCC(=O)N2CCCCC2)cc1 [Example 29, (S)-3-hydroxy-N—(N-(4-(2-oxo-2-(piperidin-1-yl)ethylthio)phenyl)carbamimidoyl)pyrrolidine-1-carboximidamide] | < 4.00
CCNC(=O)c1cccc(CNC(=N)NC(=N)N2CCCC2)c1 [Example 30, N-ethyl-3-((3-(imino(pyrrolidin-1-yl)methyl)guanidino)methyl)benzamide] | < 4.00
CN1CCN(C(=N)NC(=N)Nc2ccc(Br)cc2)CC1 [Example 31, N1-4-methyl piperazine-N5-(4-bromo)phenyl biguanide] | 4.03
CN1CCN(C(=N)NC(=N)Nc2cccc(Br)c2)CC1 [Example 32, N1-4-methyl piperazine-N5-(3-bromo)phenyl biguanide] | 4.04
CN1CCN(C(=N)NC(=N)Nc2ccccc2Br)CC1 [Example 33, N1-4-methyl piperazine-N5-(2-bromo)phenyl biguanide] | < 4.00
CN1CCN(C(=N)NC(=N)NCc2cccc(Br)c2)CC1 [Example 34, N1-4-methyl piperazine-N5-(3-bromo)benzyl biguanide] | < 4.00

SMILES | pIC50
CN1CCN(C(=N)NC(=N)NCc2ccc(F)c(OC(F)(F)F)c2)CC1 [Example 41, N1-4-methyl piperazine-N5-(4-fluoro-3-trifluoromethoxy)benzyl biguanide] | < 4.00
CN1CCN(C(=N)NC(=N)NCc2ccc(C(F)(F)F)c(F)c2)CC1 [Example 42, N1-4-methyl piperazine-N5-(3-fluoro-4-trifluoromethyl)benzyl biguanide] | < 4.00
CN1CCN(C(=N)NC(=N)NCc2ccc(OC(F)(F)F)c(F)c2)CC1 [Example 43, N1-4-methyl piperazine-N5-(3-fluoro-4-trifluoromethoxy)benzyl biguanide] | < 4.00
C[C@@H]1CCC[C@H](C)N1C(=N)NC(=N)Nc1ccc(CCN)cc1 [Example 46] | < 4.00
N=C(NC(=N)N1CCCC1)Nc1ccc(CCN)cc1 [Example 47] | < 4.00
CC1CCCCN1C(=N)NC(=N)Nc1ccc(CCN)cc1 (stereo not shown) [Example 48] | < 4.00
CC1CC(C)CN(C(=N)NC(=N)Nc2ccc(CCN)cc2)C1 (stereo not shown) [Example 49] | < 4.00
CC1CCCN(C(=N)NC(=N)Nc2ccc(CCN)cc2)C1 (stereo not shown) [Example 50] | < 4.00
N=C(N)NC(=N)Nc1ccc(Cl)cc1Cl [Example 54] | < 4.00
N=C(N)NC(=N)Nc1ccc(F)cc1 [Example 55, N5-4-fluorophenyl biguanide] | < 4.00
N=C(N)NC(=N)Nc1cc(C(F)(F)F)ccc1Cl [Example 57, N5-(2-chloro-5-trifluoromethyl)phenyl biguanide] | < 4.00
N=C(N)NC(=N)Nc1ccc(F)c(Cl)c1 [Example 58, N5-(3-chloro-4-fluoro)phenyl biguanide] | < 4.00
N=C(N)NC(=N)Nc1cccc(Cl)c1Cl [Example 59, N5-(2,3-dichloro)phenyl biguanide] | < 4.00
CN(C)C(=N)NC(=N)Nc1ccc(SCC(=O)N2CCCCC2)cc1 [Example 61, N1,N1-dimethyl-N5-4-(2-oxo-2-(piperidin-1-yl)ethylthio)phenyl biguanide] | < 4.00
N=C(NC(=N)Nc1cccnc1)Nc1ccc(C(F)(F)F)cc1 [Example 62, N1-3-pyridine-N5-(4-trifluoromethyl)phenyl biguanide] | < 4.00
N=C(NC(=N)Nc1cccnc1)Nc1ccc(OC(F)(F)F)cc1 [Example 63, N1-3-pyridine-N5-(4-trifluoromethoxy)phenyl biguanide] | < 4.00

Now those with a higher pIC50, led by results:

pIC50 | SMILES
4.09 | N=C(NCCc1ccc(F)cc1)NC(=N)N1CCCC1 [Example 12, N1-pyrrolidine-N5-(4-fluoro)phenethyl biguanide]
4.30 | N=C(N)NC(=N)Nc1ccc(SC(F)(F)F)cc1 [Example 60, N5-(4-trifluoromethylthio)phenyl biguanide]
4.37 | CN1CCN(C(=N)NC(=N)Nc2ccc(C(F)(F)F)c(F)c2)CC1 [Example 44, N1-4-methyl piperazine-N5-(3-fluoro-4-trifluoromethyl)phenyl biguanide]
4.46 | N=C(N)NC(=N)Nc1ccc(Cl)c(Cl)c1 [Example 56]
4.47 | CCN1CCN(C(=N)NC(=N)Nc2ccc(OC(F)(F)F)cc2)CC1 [Example 45, N1-4-ethyl piperazine-N5-(4-trifluoromethoxy)phenyl biguanide]
4.49 | CN1CCN(C(=N)NC(=N)Nc2ccc(F)c(C(F)(F)F)c2)CC1 [Example 35, N1-4-methyl piperazine-N5-(4-fluoro-3-trifluoromethyl)phenyl biguanide]
4.49 | CN1CCN(C(=N)NC(=N)Nc2ccc(OC(F)(F)F)c(F)c2)CC1 [Example 37, N1-4-methyl piperazine-N5-(3-fluoro-4-trifluoromethoxy)phenyl biguanide]
4.93 | CN1CCN(C(=N)NC(=N)Nc2ccc(Cl)c(C(F)(F)F)c2)CC1 [Example 38, N1-4-methyl piperazine-N5-(4-chloro-3-trifluoromethyl)phenyl biguanide]
5.11 | N=C(NC(=N)N1CCC(F)(F)C1)Nc1ccc(OC(F)(F)F)cc1 [Example 51, N1-3,3-difluoro pyrrolidine-N5-(4-trifluoromethoxy)phenyl biguanide]
5.12 | N=C(NC(=N)N1CCC(F)(F)CC1)Nc1ccc(OC(F)(F)F)cc1 [Example 52, N1-4,4-difluoro piperidine-N5-(4-trifluoromethoxy)phenyl biguanide]
5.12 | CN1CCN(C(=N)NC(=N)Nc2ccc(Cl)c(OC(F)(F)F)c2)CC1 [Example 39, N1-4-methyl piperazine-N5-(4-chloro-3-trifluoromethoxy)phenyl biguanide]
5.13 | N=C(NC(=N)N1CCCC1)Nc1ccc(-c2ccccc2)cc1 [Example 9, N1-pyrrolidine-N5-(N-biphenyl-4-yl) biguanide]
5.15 | CN1CCN(C(=N)NC(=N)Nc2ccc(OC(F)(F)F)c(Cl)c2)CC1 [Example 36, N1-4-methyl piperazine-N5-(3-chloro-4-trifluoromethoxy)phenyl biguanide]
5.16 | N=C(NC(=N)N1CCCC1)Nc1cccc(-c2ccccc2)c1 [Example 8, N1-pyrrolidine-N5-(N-biphenyl-3-yl) biguanide]
5.19 | N=C(NC(=N)N1CCCC1)Nc1ccc(-c2cccc(F)c2)cc1 [Example 11, N1-pyrrolidine-N5-(3′-fluorobiphenyl-4-yl) biguanide]
5.20 | N=C(NC(=N)N1CCCC1)Nc1cccc(-c2ccc(F)cc2)c1 [Example 10, N1-pyrrolidine-N5-(4′-fluorobiphenyl-3-yl) biguanide]
